Experimental data reported in patent US10913745B2, “Octahydro-pyrrolo[3,4-c]-pyrrole derivatives and analogs thereof as autotaxin inhibitors” (Hoffmann-La Roche Inc., priority 2013, dated 2021).

molecular target: ATX (human His-tagged) (Homo sapiens (Human), UniProt Q13822); assay: Human ATX enzyme inhibition assay (fluorescence quenching, MR121 substrate); type: biochemical; conditions: MR121 substrate 1 μM, ATX 30 nM final, 30° C.
Experimental: Human ATX Enzyme Inhibition Assay
ATX inhibition was measured by a fluorescence quenching assay using a specifically labeled substrate analogue (MR121 substrate). To obtain this MR121 substrate, BOC and TBS protected 6-amino-hexanoic acid (R)-3-({2-[3-(2-{2-[2-(2-amino-ethoxy)-ethoxy]-ethoxy}-ethoxy)-propionylamino]-ethoxy}-hydroxy-phosphoryloxy)-2-hydroxy-propyl ester (Ferguson et al., Org Lett 2006, 8 (10), 2023) was labeled with MR121 fluorophore (CAS 185308-24-1, 1-(3-carboxypropyl)-11-ethyl-1,2,3,4,8,9,10,11-octahydro-dipyrido[3,2-b:2′,3′-i]phenoxazin-13-ium) on the free amine of the ethanolamine side and then, after deprotection, subsequently with tryptophan on the side of the aminohexanoic acid. Assay working solutions were made as follows: Assay buffer (50 mM Tris-HCl, 140 mM NaCl, 5 mM KCl, 1 mM CaCl2, 1 mM MgCl2, 0.01% Triton-X-100, pH 8.0; ATX solution: ATX (human His-tagged) stock solution (1.08 mg/mL in 20 mM bicine, pH 8.5, 0.15 M NaCl, 10% glycerol, 0.3% CHAPS, 0.02% NaN3), diluted to 1.4-2.5× final concentration in assay buffer; MR121 substrate solution: MR121 substrate stock solution (800 μM MR121 substrate in DMSO), diluted to 2-5× final concentration in assay buffer. Test compounds (10 mM stock in DMSO, 8 μL) were obtained in 384 well sample plates (Corning Costar #3655) and diluted with 8 μL DMSO. Row-wise serial dilutions were made by transferring 8 μL cpd solution to the next row up to row O. The compound and control solutions were mixed five times and 2 μL were transferred to 384 well assay plates (Corning Costar #3702). Then, 15 μL of 41.7 nM ATX solution was added (30 nM final concentration), mixed five times and then incubated for 15 minutes at 30° C. 10 μL of MR121 substrate solution was added (1 μM final concentration), mixed 30 times and then incubated for 15 minutes at 30° C.

SMILES	IC50
CC(C)(C)C(=O)Nc1cc(C#N)ccc1COC(=O)N1C[C@@H]2CN(C(=O)c3ccc(S(N)(=O)=O)cc3)C[C@H]2C1 [Example 1.24, (3aS,6aS)-5-(4-sulfamoyl-benzoyl)-hexahydro-pyrrolo[3,4-c]pyrrole-2-carboxylic acid 4-cyano-2-(2,2-dimethyl-propionylamino)-benzylester]	12 nM
CC(C)(C)C(=O)Nc1cc(C#N)ccc1COC(=O)N1C[C@@H]2CN(C(=O)c3ccc(S(N)(=O)=O)cc3F)C[C@H]2C1 [Example 1.25, (3aS,6aS)-5-(2-fluoro-4-sulfamoyl-benzoyl)-hexahydro-pyrrolo[3,4-c]pyrrole-2-carboxylic acid 4-cyano-2-(2,2-dimethyl-propionylamino)-benzyl ester]	2 nM
CC(C)(C)C(=O)Nc1cc(C#N)ccc1COC(=O)N1C[C@@H]2CN(C(=O)c3ccc(S(N)(=O)=O)cn3)C[C@H]2C1 [Example 1.26, (3aS,6aS)-5-(5-sulfamoyl-pyridine-2-carbonyl)-hexahydro-pyrrolo[3,4-c]pyrrole-2-carboxylic acid 4-cyano-2-(2,2-dimethyl-propionylamino)-benzyl ester]	10 nM
CC(=O)Nc1ccc(C(=O)N2C[C@H]3CN(C(=O)OCc4cc(Cl)cc(Cl)c4)C[C@H]3C2)cc1 [Example 2, (3aR,6aS)-3,5-Dichlorobenzyl 5-(4-acetamidobenzoyl)hexahydropyrrolo[3,4-c]pyrrole-2(1H)-carboxylate]	342 nM
CC(=O)Nc1ccc(C(=O)N2C[C@H]3CN(C(=O)OCc4cc(Cl)cc(Cl)c4)C[C@H]3C2)nc1 [Example 2.01, (3aR,6aS)-3,5-Dichlorobenzyl 5-(5-acetamidopicolinoyl)hexahydropyrrolo[3,4-c]pyrrole-2(1H)-carboxylate]	1500 nM
NS(=O)(=O)c1ccc(S(=O)(=O)N2C[C@H]3CN(C(=O)OCc4cc(Cl)cc(Cl)c4)C[C@H]3C2)cc1 [Example 3, (3aR,6aS)-3,5-Dichlorobenzyl 5-(4-sulfamoylphenylsulfonyl)hexahydropyrrolo[3,4-c]pyrrole-2(1H)-carboxylate]	31 nM
O=C(OCc1cc(Cl)cc(Cl)c1)N1C[C@@H]2CN(C(=O)c3ccc(-c4nnn[nH]4)cc3)C[C@@H]2C1 [Example 4, (3aR,6aS)-3,5-Dichlorobenzyl 5-(4-(1H-tetrazol-5-yl)benzoyl)hexahydropyrrolo[3,4-c]pyrrole-2(1H)-carboxylate]	573 nM
O=C(O)c1ccc(C(=O)N2C[C@H]3CN(C(=O)OCc4cc(Cl)cc(Cl)c4)C[C@H]3C2)cc1 [Example 5, 4-((3aR,6aS)-5-((3,5-Dichlorobenzyloxy)carbonyl)octahydropyrrolo[3,4-c]pyrrole-2-carbonyl)benzoic acid]	1340 nM
CS(=O)(=O)Nc1ccc(C(=O)N2C[C@H]3CN(C(=O)OCc4cc(Cl)cc(Cl)c4)C[C@H]3C2)nc1 [Example 6, (3aR,6aS)-3,5-Dichlorobenzyl 5-(5-(methylsulfonamido)picolinoyl)hexahydropyrrolo[3,4-c]pyrrole-2(1H)-carboxylate]	622 nM
CS(=O)(=O)c1cc(Cl)cc(COC(=O)N2C[C@@H]3CN(C(=O)c4ccc(S(N)(=O)=O)cc4)C[C@H]3C2)c1 [Example 7, (3aS,6aS)-5-(4-Sulfamoyl-benzoyl)-hexahydro-pyrrolo[3,4-c]pyrrole-2-carboxylic acid 3-chloro-5-methanesulfonyl-benzyl ester]	14.5 nM
NS(=O)(=O)c1ccc(C(=O)N2C[C@H]3CN(C(=O)CCc4ccc(OC(F)(F)F)cc4)C[C@@H]3C2)cc1 [Example 8, 4-{(3aR,6aR)-5-[3-(4-Trifluoromethoxy-phenyl)-propionyl]-hexahydro-pyrrolo[3,4-c]pyrrole-2-carbonyl}-benzenesulfonamide]	8.5 nM

More lines, now with the values ahead:

IC50	SMILES
1 nM	NS(=O)(=O)c1ccc(C(=O)N2C[C@H]3CN(C(=O)OCc4ccc(OC(F)(F)F)cc4F)C[C@H]3C2)cc1 [Example 7.01, (3aR,6aS)-5-(4-sulfamoyl-benzoyl)-hexahydro-pyrrolo[3,4-c]pyrrole-2-carboxylic acid 2-fluoro-4-trifluoromethoxy-benzyl ester]
3 nM	NS(=O)(=O)c1ccc(C(=O)N2C[C@H]3CN(C(=O)OCc4ccc(OC(F)(F)F)cc4)C[C@H]3C2)cc1 [Example 7.02, (3aR,6aS)-5-(4-sulfamoyl-benzoyl)-hexahydro-pyrrolo[3,4-c]pyrrole-2-carboxylic acid 4-trifluoromethoxy-benzyl ester]
4 nM	NS(=O)(=O)c1ccc(C(=O)N2C[C@H]3CN(C(=O)OCc4ccc(OC(F)(F)F)cc4)C[C@@H]3C2)cc1 [Example 7.03, (3aS,6aS)-5-(4-sulfamoyl-benzoyl)-hexahydro-pyrrolo[3,4-c]pyrrole-2-carboxylic acid 4-trifluoromethoxy-benzyl ester]
7.5 nM	NS(=O)(=O)c1ccc(C(=O)N2C[C@H]3CN(C(=O)/C=C/c4ccc(OC(F)(F)F)cc4)C[C@@H]3C2)cc1 [Example 8.01, 4-{(3aR,6aR)-5-[(E)-3-(4-trifluoromethoxy-phenyl)-acryloyl]-hexahydro-pyrrolo[3,4-c]pyrrole-2-carbonyl}-benzenesulfonamide]
14 nM	CC(C)Oc1cc(C(=O)N2C[C@H]3CN(C(=O)c4ccc(S(N)(=O)=O)cc4)C[C@H]3C2)cc2ccccc12 [Example 8.02, 4-[(3aR,6aS)-5-(4-isopropoxy-naphthalene-2-carbonyl)-hexahydro-pyrrolo[3,4-c]pyrrole-2-carbonyl]-benzenesulfonamide]
5.5 nM	NS(=O)(=O)c1ccc(C(=O)N2C[C@@H]3CN(C(=O)c4cc5ccccc5c(OCC(F)(F)F)n4)C[C@@H]3C2)cc1 [Example 8.03, 4-{(3aR,6aS)-5-[1-(2,2,2-trifluoro-ethoxy)-isoquinoline-3-carbonyl]-hexahydro-pyrrolo[3,4-c]pyrrole-2-carbonyl}-benzenesulfonamide]
166 nM	Cn1c(C(=O)N2C[C@H]3CN(C(=O)c4ccc(S(N)(=O)=O)cc4)C[C@H]3C2)cc2cc(OC(F)(F)F)ccc21 [Example 8.04, 4-[(3aR,6aS)-5-(1-Methyl-5-trifluoromethoxy-1H-indole-2-carbonyl)-hexahydro-pyrrolo[3,4-c]pyrrole-2-carbonyl]-benzenesulfonamide]
93 nM	CC(C)Oc1cc(C(=O)N2C[C@H]3CN(C(=O)c4ccc(S(N)(=O)=O)cc4)C[C@H]3C2)nc2ccccc12 [Example 8.05, 4-[(3aR,6aS)-5-(4-Isopropoxy-quinoline-2-carbonyl)-hexahydro-pyrrolo[3,4-c]pyrrole-2-carbonyl]-benzenesulfonamide]
3 nM	NS(=O)(=O)c1ccc(C(=O)N2C[C@H]3CN(C(=O)c4ccc(-c5ccc(Cl)cc5)cc4)C[C@H]3C2)cc1 [Example 8.06, 4-[(3 aS,6aR)-5-(4′-chloro-biphenyl-4-carbonyl)-hexahydro-pyrrolo[3,4-c]pyrrole-2-carbonyl]-benzenesulfonamide]
1 nM	NS(=O)(=O)c1ccc(C(=O)N2C[C@H]3CN(C(=O)CCc4ccc(OC(F)(F)F)cc4F)C[C@H]3C2)cc1 [Example 8.07, 4-{(3aS,6aR)-5-[3-(2-fluoro-4-trifluoromethoxy-phenyl)-propionyl]-hexahydro-pyrrolo[3,4-c]pyrrole-2-carbonyl}-benzenesulfonamide]
1.5 nM	NS(=O)(=O)c1ccc(C(=O)N2C[C@H]3CN(C(=O)CCc4ccc(OC(F)(F)F)cc4)C[C@H]3C2)cc1 [Example 8.08, 4-{(3aS,6aR)-5-[3-(4-trifluoromethoxy-phenyl)-propionyl]-hexahydro-pyrrolo[3,4-c]pyrrole-2-carbonyl}-benzenesulfonamide]
1 nM	NS(=O)(=O)c1ccc(C(=O)N2C[C@H]3CN(C(=O)CCc4ccc(OC(F)(F)F)cc4F)C[C@@H]3C2)cc1 [Example 8.09, 4-((3 aR,6aR)-5-(3-(2-fluoro-4-(trifluoromethoxy)phenyl)propanoyl)octahydropyrrolo[3,4-c]pyrrole-2-carbonyl)benzenesulfonamide]
